Test system: PSYLI2 cells
Assay: PsychLight assays (agonist and antagonist mode)
Assay type: cell-based
Conditions: FIG. 3C-3E; agonist mode concentration-response, antagonist mode 1 μM
Method: PsychLight Assays. Psychlight assays were performed using a previously published method. Briefly, glass bottom 96-well plates were coated with 50 μg/mL of poly-D-lysine overnight at room temperature and then washed with Dulbecco's PBS. PSYLI2 cells were suspended in DMEM containing 10% FBS with 5% penicillin-streptomycin, plated at a density of 40,000 cells/well, and incubated (37° C., 5% CO2) for 24 h prior to each experiment. Immediately before an experiment, stock solutions of drugs in DMSO were diluted 1:100 in imaging media distributed across an empty 96-well plate (treatment plate) following a randomized plate map. The imaging media consisted of 1×HBSS containing […] and […]. […] Data were from 2 plates with 2-3 wells being analyzed per plate. […]
Once imaging was complete, the images were exported, and analyzed using a custom Python script. […] The mask was generated by calculating the average fluorescence intensity for the entire image and using that value as a threshold. […] The % ΔF/F values for each well were calculated using the following equation: […]
Once imaging was complete, the images were exported, and analyzed using a custom Python script. […] The mask was generated by calculating the average fluorescence intensity for the entire image and using that value as a threshold. […]

`CCN(CC)C(=O)[C@H]1C=C2c3cccc4ccn(c34)C[C@@H]2N(C)C1` [(−)-JRT] was tested, and the “hallucinogenic potential (psychLight)” value was “low hallucinogenic potential”.
